Laboratory results taken from US10576062B2, “Carbamoyloxymethyl triazole cyclohexyl acids as LPA antagonists” (Bristol-Myers Squibb Company, priority 2016, dated 2020).

The compounds below were run against T1, human LPA1 (Homo sapiens, UniProt Q92633) (assay: LPA1 functional antagonist assay (LPA-induced calcium flux)). Conditions: CHO cells overexpressing human LPA1; inhibition of calcium flux induced by 10 nM LPA; read-out: hLPA1 IC50.
T1 construct: expressed in transfected cells; host or cells: Chinese hamster ovary (CHO) cells
T1 sequence (Q92633 whole entry): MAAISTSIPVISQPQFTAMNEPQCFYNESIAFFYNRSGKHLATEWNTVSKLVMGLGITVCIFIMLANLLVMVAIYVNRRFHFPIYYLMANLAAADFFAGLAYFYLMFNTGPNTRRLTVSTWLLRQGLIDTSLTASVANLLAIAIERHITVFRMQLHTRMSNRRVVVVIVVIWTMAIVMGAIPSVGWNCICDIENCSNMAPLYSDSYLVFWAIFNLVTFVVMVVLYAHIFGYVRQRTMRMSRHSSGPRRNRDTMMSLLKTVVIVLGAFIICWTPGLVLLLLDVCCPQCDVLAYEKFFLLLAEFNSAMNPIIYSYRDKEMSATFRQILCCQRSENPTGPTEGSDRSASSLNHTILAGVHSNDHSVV
Format: cell-based
Method in brief: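 CHO cells overexpressing human LPA1, loaded with calcium dye 30 min at 37° C, were preincubated 20 min at room temperature with compound (0.08 nM–5 μM, 0.5% DMSO) in HBSS/20 mM HEPES/0.1% fatty acid-free BSA.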
An IC50 of 72 nM was found for Cc1nc(-c2nnn(C)c2CCOC(=O)N(C)C2CCCC2)ccc1O[C@H]1CCC[C@H](C(=O)O)C1 [Example 243, (1S,3S)-3-((6-(5-(2-((Cyclopentyl-(methyl)carbamoyl)oxy)ethyl)-1-methyl-1H-1,2,3-triazol-4-yl)-2-methylpyridin-3-yl)oxy)cyclohexane-1-carboxylic acid] in this work.
An IC50 of 70 nM was found for Cc1nc(-c2nnn(C)c2COC(=O)N(C)CCC2CC2)cnc1O[C@H]1CCC[C@H](C(=O)O)C1 [Example 225, (1S,3S)-3-((5-(5-((((2-cyclopropylethyl)(methyl)carbamoyl)oxy)methyl)-1-methyl-1H-1,2,3-triazol-4-yl)-3-methylpyrazin-2-yl)oxy)cyclohexane-1-carboxylic acid] in this work.
An IC50 of 17 nM was found for Cc1nc(-c2nnn(C)c2COC(=O)N(C)CCCC(C)F)ccc1O[C@H]1CCC[C@H](C(=O)O)C1 (stereo partly drawn) [Example 256, (1S,3S)-3-((6-(5-((((4-fluoropentyl)(methyl)carbamoyl)oxy)methyl)-1-methyl-1H-1,2,3-triazol-4-yl)-2-methylpyridin-3-yl)oxy)cyclohexane-1-carboxylic acid] in this work.
An IC50 of 174 nM was found for CN(C(=O)OCc1c(-c2cnc(O[C@H]3CCC[C@H](C(=O)O)C3)c(C(F)(F)F)c2)nnn1C)C1CCCC1 [Example 238, (1S,3S)-3-((5-(5-(((cyclopentyl(methyl)carbamoyl)oxy)methyl)-1-methyl-1H-1,2,3-triazol-4-yl)-3-(trifluoromethyl)pyridin-2-yl)oxy)cyclohexane-1-carboxylic acid] in this work.
An IC50 of 11 nM was found for CCCN(C)C(=O)OCc1c(-c2ccc(O[C@H]3CCC[C@H](C(=O)O)C3)c(C#N)n2)nnn1C [Example 270, (1S,3S)-3-((2-cyano-6-(1-methyl-5-(((methyl(propyl)carbamoyl)oxy)methyl)-1H-1,2,3-triazol-4-yl)pyridin-3-yl)oxy)cyclohexane-1-carboxylic acid] in this work.
An IC50 of 384 nM was found for CC(OC(=O)N(C)CC1CCC1)c1c(-c2ccc(O[C@H]3CCC[C@H](C(=O)O)C3)cc2)nnn1C (mixture of isomers) [Example 12, (1S,3S)-3-(4-(5-(1-(((cyclobutylmethyl)(methyl)carbamoyl)oxy)ethyl)-1-methyl-1H-1,2,3-triazol-4-yl)phenoxy)cyclohexane-1-carboxylic Acid] in this work.
An IC50 of 29 nM was found for Cc1nc(-c2nnn(C)c2COC(=O)N(C)CC2CC2C)ccc1O[C@H]1CCC[C@H](C(=O)O)C1 (stereo partly drawn) [Example 262, (1S,3S)-3-((2-methyl-6-(1-methyl-5-(((methyl((2-methylcyclopropyl)methyl)carbamoyl)oxy)methyl)-1H-1,2,3-triazol-4-yl)pyridin-3-yl)oxy)cyclohexane-1-carboxylic acid] in this work.
An IC50 of 54 nM was found for Cc1nc(-c2nnn(C)c2CCOC(=O)N(C)Cc2ccccc2)ccc1O[C@H]1CCC[C@H](C(=O)O)C1 [Example 244, (1S,3S)-3-((6-(5-(2-((Benzyl(methyl)-carbamoyl)oxy)ethyl)-1-methyl-1H-1,2,3-triazol-4-yl)-2-methylpyridin-3-yl)oxy)cyclohexane-1-carboxylic acid] in this work.
An IC50 of 440 nM was found for CN(CC1CCC1)C(=O)OCc1c(-c2cnc(O[C@H]3CCC[C@H](C(=O)O)C3)c(C(F)(F)F)c2)nnn1C [Example 239, (1S,3S)-3-((5-(5-((((cyclobutylmethyl)(methyl)carbamoyl)oxy)methyl)-1-methyl-1H-1,2,3-triazol-4-yl)-3-(trifluoromethyl)pyridin-2-yl)oxy)cyclohexane-1-carboxylic acid] in this work.
An IC50 of 76 nM was found for Cc1nc(-c2nnn(C)c2COC(=O)N(C)CC2(C)CC2)ccc1O[C@H]1CCC[C@H](C(=O)O)C1 [Example 263, (1S,3S)-3-((2-methyl-6-(1-methyl-5-(((methyl((1-methylcyclopropyl)methyl)carbamoyl)oxy)methyl)-1H-1,2,3-triazol-4-yl)pyridin-3-yl)oxy)cyclohexane-1-carboxylic acid] in this work.
An IC50 of 40 nM was found for CN(CC1CC1)C(=O)OCc1c(-c2ccc(O[C@H]3CCC[C@H](C(=O)O)C3)c(C#N)n2)nnn1C [Example 289, (1S,3S)-3-((2-cyano-6-(5-((((cyclopropylmethyl)(methyl)carbamoyl)oxy)methyl)-1-methyl-1H-1,2,3-triazol-4-yl)pyridin-3-yl)oxy)cyclohexane-1-carboxylic acid] in this work.
An IC50 of 46 nM was found for CCc1nc(-c2nnn(C)c2COC(=O)NCc2ccccc2)ccc1O[C@H]1CCC[C@H](C(=O)O)C1 [Example 198, (1S,3S)-3-((6-(5-(((benzylcarbamoyl)oxy)methyl)-1-methyl-1H-1,2,3-triazol-4-yl)-2-ethylpyridin-3-yl)oxy)cyclohexane-1-carboxylic acid] in this work.
An IC50 of 46 nM was found for Cc1nc(-c2nnn(C)c2COC(=O)N(C)C[C@H]2C[C@@H]2C)cnc1O[C@H]1CCC[C@H](C(=O)O)C1 [Example 236, (1S,3S)-3-((3-methyl-5-(1-methyl-5-(((methyl(((1S,2S)-2-methylcyclopropyl)methyl)carbamoyl)oxy)methyl)-1H-1,2,3-triazol-4-yl)pyrazin-2-yl)oxy)cyclohexane-1-carboxylic acid] in this work.

Same assay, conditions: human LPA1; read-out: hLPA1 IC50
An IC50 of 86 nM was found for CN(CC1CC1(C)C)C(=O)OCc1c(-c2ccc(O[C@H]3CCC[C@H](C(=O)O)C3)cn2)nnn1C (mixture of isomers) [Example 185, (1S,3S)-3-((6-(5-(((((2,2-dimethylcyclopropyl)methyl)(methyl)carbamoyl)oxy)methyl)-1-methyl-1H-1,2,3-triazol-4-yl)pyridin-3-yl)oxy)cyclohexane-1-carboxylic acid] in this work.
An IC50 of 61 nM was found for Cc1nc(-c2nnn(C)c2COC(=O)N(C)C2CC(C)(C)C2)ccc1O[C@H]1CCC[C@@H](C(=O)O)C1 [Example 160, (1R,3S)-3-((6-(5-((((3,3-dimethylcyclobutyl)(methyl)carbamoyl)oxy)methyl)-1-methyl-1H-1,2,3-triazol-4-yl)-2-methylpyridin-3-yl)oxy)cyclohexane-1-carboxylic acid] in this work.
An IC50 of 83 nM was found for Cc1nc(-c2nnn(C)c2COC(=O)N2CCC(C3CC3)C2)ccc1O[C@H]1CCC[C@H](C(=O)O)C1 (mixture of isomers) [Example 164, (1S,3S)-3-((6-(5-(((3-cyclopropylpyrrolidine-1-carbonyl)oxy)methyl)-1-methyl-1H-1,2,3-triazol-4-yl)-2-methylpyridin-3-yl)oxy)cyclohexane-1-carboxylic acid] in this work.
An IC50 of 101 nM was found for CN(C(=O)OCc1c(-c2ccc(O[C@H]3CCC[C@H](C(=O)O)C3)cn2)nnn1C)C1CC(C)(C)C1 [Example 181, (1S,3S)-3-((6-(5-((((3,3-dimethylcyclobutyl)(methyl)carbamoyl)oxy)methyl)-1-methyl-1H-1,2,3-triazol-4-yl)pyridin-3-yl)oxy)cyclohexane-1-carboxylic acid] in this work.

Same assay, conditions: read-out: hLPA1 IC50
An IC50 of 58 nM was found for Cc1nc(-c2nnn(C)c2COC(=O)N(C)C2(C)CC2)ccc1O[C@H]1CCC[C@H](C(=O)O)C1 [Example 85, (1S,3S)-3-((2-methyl-6-(1-methyl-5-(((methyl(1-methylcyclopropyl)carbamoyl)oxy)methyl)-1H-1,2,3-triazol-4-yl)pyridin-3-yl)oxy)cyclohexane-1-carboxylic acid] in this work.
An IC50 of 32 nM was found for Cc1cc(-c2nnn(C)c2COC(=O)N(C)Cc2ccccc2)ccc1O[C@H]1CCC[C@H](C(=O)O)C1 [Example 38, (1S,3S)-3-(4-(5-(((benzyl(methyl)carbamoyl)oxy)methyl)-1-methyl-1H-1,2,3-triazol-4-yl)-2-methylphenoxy)cyclohexane-1-carboxylic acid] in this work.
An IC50 of 32 nM was found for CCCCN(C)C(=O)OCc1c(-c2ccc(O[C@H]3CCC[C@H](C(=O)O)C3)cc2)nnn1C (racemic) [Example 64, (rac)-trans-3-(4-(5-(((butyl(methyl)carbamoyl)oxy)methyl)-1-methyl-1H-1,2,3-triazol-4-yl)phenoxy)cyclohexane-1-carboxylic acid] in this work.
An IC50 of 33 nM was found for CCCCN(CC)C(=O)OCc1c(-c2ccc(O[C@H]3CCC[C@H](C(=O)O)C3)c(C)n2)nnn1C [Example 127, (1S,3S)-3-((6-(5-(((butyl(ethyl)carbamoyl)oxy)methyl)-1-methyl-1H-1,2,3-triazol-4-yl)-2-methylpyridin-3-yl)oxy)cyclohexane-1-carboxylic acid] in this work.
An IC50 of 15 nM was found for CCN(CC1CCC1)C(=O)OCc1c(-c2ccc(O[C@H]3CCC[C@H](C(=O)O)C3)c(C)n2)nnn1C [Example 113, (1S,3S)-3-((6-(5-((((cyclobutylmethyl)(ethyl)carbamoyl)oxy)methyl)-1-methyl-1H-1,2,3-triazol-4-yl)-2-methylpyridin-3-yl)oxy)cyclohexane-1-carboxylic acid] in this work.
An IC50 of 18 nM was found for CN(Cc1ccccc1)C(=O)OCc1c(-c2ccc(O[C@H]3CCC[C@H](C(=O)O)C3)cn2)nnn1C [Example 22, (1S,3S)-3-((6-(5-(((benzyl(methyl)carbamoyl)oxy)methyl)-1-methyl-1H-1,2,3-triazol-4-yl)pyridin-3-yl)oxy)cyclohexane-1-carboxylic acid] in this work.
An IC50 of 2780 nM was found for CN(C(=O)OCc1c(-c2ccc(O[C@@H]3CCC[C@@H](C(=O)NS(C)(=O)=O)C3)cc2)nnn1C)C1CCCC1 [Example 72, (1-Methyl-4-(4-(((1R,3R)-3-((methylsulfonyl)carbamoyl)cyclohexyl)oxy)phenyl)-1H-1,2,3-triazol-5-yl)methyl cyclopentyl(methyl)carbamate] in this work.
An IC50 of 60 nM was found for CN(C(=O)OCc1c(-c2ccc(O[C@H]3CCC[C@H](C(=O)O)C3)cn2)nnn1C)C(C1CC1)C1CC1 [Example 80, (1S,3S)-3-((6-(5-((((Dicyclopropylmethyl)(methyl)carbamoyl)oxy)methyl)-1-methyl-1H-1,2,3-triazol-4-yl)pyridin-3-yl)oxy)cyclohexanecarboxylic acid] in this work.
An IC50 of 53 nM was found for Cc1nc(-c2nnn(C)c2COC(=O)N(C)C23CC(C2)C3)ccc1O[C@H]1CCC[C@H](C(=O)O)C1 [Example 102, (1S,3S)-3-((6-(5-(((bicyclo[1.1.1]pentan-1-yl(methyl)carbamoyl)oxy)methyl)-1-methyl-1H-1,2,3-triazol-4-yl)-2-methylpyridin-3-yl)oxy)cyclohexane-1-carboxylic acid] in this work.
